Data reported in patent US20120022033A1, “Methods for decreasing cardiovascular risk in postmenopausal women” (BIOSANTE PHARMACEUTICALS, INC., priority 2010, published 2012).

Tested on: postmenopausal women at high risk for cardiovascular events
Test: Randomized, double-blind, placebo-controlled, multi-center Phase 3 study; observed vs expected cardiovascular events
Assay type: in vivo
Details: postmenopausal women at high risk for cardiovascular disease, compared with untreated group
Excerpt: The following example calculates the expected number of cardiovascular events in a population of postmenopausal women derived from historical data. The estimate of the expected rate of cardiovascular events has been determined from the event rates noted in the Women's Health Initiative (WHI), a Department of Health and Human Services National Institute of Health-sponsored study of women between 50 and 79 years of age, a similar set of women between that age were enrolled for determining the actual number of cardiovascular events as described in Example 2.
Overall, the cardiovascular event rate in women in the WHI study who had at least one cardiovascular risk factor was approximately 2-fold greater than in women without any cardiovascular risk factors. […]
The study consisted of a screening period of up to 8 weeks and a 60-month treatment period. […] Adverse cardiovascular and breast cancer events (ABC events) were assessed at each subject contact in addition to the usual assessments of safety and concomitant medications. […]
There were eight adjudicated cardiovascular events determined from this Phase 3 clinical trial after greater than 4,000 woman-years of therapy.

SMILES: C[C@]12CC[C@H]3[C@@H](CCC4=CC(=O)CC[C@@]43C)[C@@H]1CC[C@@H]2O [testosterone, testosterone (17-β-hydroxyandrostenone)]
- risk of having a cardiovascular event (result in words): decreases in the risk of having a cardiovascular event
